Test results published in article PMC11249646, “Small-Molecule Disruptors of the Interaction between Calcium- and Integrin-Binding Protein 1 and Integrin αIIbβ3 as Novel Antiplatelet Agents” (ACS Pharmacology & Translational Science, 2024).
Where two headings read alike, the source gives them in different places.

Columns and labels:
[1] = target: T1, CIB1 and αIIb interaction (CIB1-GST : F-αIIb peptide) (Homo sapiens, UniProt Q99828); assay: FP assay, 1536-well qHTS format (primary and confirmatory screen); type: binding; settings: for CONFIRMATORY SCREEN Curve Class / Curve Class (confirmatory screen): qHTS curve class
T1 construct: made in house; host or cells: BL-21 plus RIL cells (E. coli)
T1 sequence (Q99828 1-191): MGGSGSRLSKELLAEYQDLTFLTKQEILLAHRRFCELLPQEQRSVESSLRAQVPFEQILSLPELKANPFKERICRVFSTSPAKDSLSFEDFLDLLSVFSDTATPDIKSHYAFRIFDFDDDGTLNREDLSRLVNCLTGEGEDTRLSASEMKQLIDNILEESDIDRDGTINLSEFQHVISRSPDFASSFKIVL

[2] = target: T2, GST-CIB1 : F-scrambled peptide (Homo sapiens, UniProt Q99828); assay: FP scrambled-peptide counter screen, 1536-well format; type: binding; settings: for COUNTERSCREEN Curve Class / Curve Class (counterscreen): qHTS curve class; for IC50: read-out: IC50 [μM] (counterscreen)
T2 construct: made in house; host or cells: BL-21 plus RIL cells (E. coli)
T2 sequence (Q99828 1-191): T1 sequence (Q99828 1-191)

[3] = qHTS primary screen hits, Table S2, negative = inhibition
[4] = qHTS primary screen hits, Table S2, negative sign = inhibitory curve, several classes where COUNT > 1
[5] = qHTS primary screen hits, Table S2, read-out: IC50
[6] = qHTS primary screen hits, Table S2, negative sign = inhibitory curve
[7] = Table S3, confirmatory screen, a negative sign marks inhibitory curves
[8] = Table S3, confirmatory screen, negative = inhibition
[9] = Table S3, counterscreen, a negative sign marks inhibitory curves
[10] = Table S3, counterscreen, negative = inhibition
[11] = confirmatory screen, negative sign = inhibitory curve
[12] = scrambled-peptide counterscreen

SMILES | CONFIRMATORY SCREEN Efficacy (%) ([1]; confirmatory screen) | CONFIRMATORY SCREEN Curve Class ([1]; confirmatory screen) | Efficacy (%) [1, 3] [%] | Curve Class [1, 4] | IC50 [1, 5] [µM] | COUNTERSCREEN Efficacy (%) ([2]; counterscreen) | COUNTERSCREEN Curve Class ([2]; counterscreen) | Curve Class [1, 6] | Curve Class (confirmatory screen) [1, 7] | Efficacy (%) (confirmatory screen) [1, 8] | Curve Class (counterscreen) [2, 9] | Efficacy (%) (counterscreen) [2, 10] | IC50 ([2]; Table S3, counterscreen) [µM] | also measured
O=C(O)C(F)(F)F.O=C1CCC2=C1C1(CCCC1)N=C(Nc1nc3ccccc3o1)N2 [NCGC00188036-01] | -27 | 4 | -24 | -1.4 | 2.8 | -10 | 4 | – | – | – | – | – | – | –
CC1CCC2(C1)N=C(Nc1nc3ccccc3o1)NC1=C2C(=O)CCC1.O=C(O)C(F)(F)F (stereo not drawn) [NCGC00188039-01] | -33 | 4 | -25 | – | 31.6 | -20 | 4 | -2.4 | – | – | – | – | – | –
CC(C)c1nc(Nc2nc3ccccc3o2)nc2c1CCCC2.O=C(O)C(F)(F)F [NCGC00188040-01] | – | – | -19 | – | 6.3 | – | – | -1.4 | 4 | -29 | -2.4 | -36 | 22.4 | Confirm? (counterscreen) ([2]; Table S3, counterscreen, YES/NO call): YES
CSc1cc2c(s1)c1cnn(Cc3cccc(N)c3)c(=O)c1n2C.O=C(O)C(F)(F)F [NCGC00188341-01] | – | – | -65 | -1.2 | 20 | – | – | – | – | – | – | – | – | Efficacy (%) (confirmatory screen) ([1]; confirmatory screen): -133%; Confirm? (confirmatory screen) ([1]; confirmatory screen, YES/NO): YES; Curve Class (confirmatory screen) [1, 11]: -2.1; IC50 ([1]; confirmatory screen, read-out: IC50 [μM] (confirmatory screen)): 39.8 µM; Efficacy (%) (counterscreen) ([2]; counterscreen): 0%; Confirm? (counterscreen) ([2]; counterscreen, YES/NO): YES; Curve Class (counterscreen) ([2]; counterscreen, negative sign = inhibitory curve): 4
Cc1ccc(C(=O)NC(c2ccco2)c2cc(Cl)c3cccnc3c2O)cc1 (stereo not drawn) [NCGC00188372-01] | – | – | -23 | – | 31.6 | – | – | -1.4 | 4 | -11 | – | 42 | 89.1 | –
O=C(NC(c1ccco1)c1cc(Cl)c2cccnc2c1O)c1cccs1.O=C(O)C(F)(F)F (stereo not drawn) [NCGC00188375-01] | – | – | -35 | -1.2 | 25.1 | – | – | – | 4 | 0 | – | 81 | 50.1 | –
O=C(Cc1ccccc1)NC(c1ccco1)c1cc(Cl)c2cccnc2c1O.O=C(O)C(F)(F)F (stereo not drawn) [NCGC00188377-01] | – | – | -35 | -2.2 | 39.8 | – | – | – | 4 | -25 | 3 | 61 | 89.1 | –
CS(=O)(=O)c1ccc(C(=O)OCC(=O)N2CCN(CCC3CCCCC3)CC2)cc1[N+](=O)[O-].O=C(O)C(F)(F)F [NCGC00188531-01] | – | – | -26 | -1.4 | 0.9 | – | – | – | -3 | -49 | -2.2 | -50 | 39.8 | Confirm? (confirmatory screen) ([1]; Table S3, confirmatory screen, YES/NO call): YES; IC50 ([1]; Table S3, confirmatory screen, read-out: IC50 [μM] (confirmatory screen)): 39.8 µM
CCCC1CCN(C(=O)COC(=O)c2ccc(S(C)(=O)=O)c([N+](=O)[O-])c2)CC1 [NCGC00188533-01] | – | – | – | – | – | – | – | – | – | – | – | – | – | CONFIRMATORY SCREEN Confirm? ([1]; confirmatory screen, YES/NO call): YES; CONFIRMATORY SCREEN Curve Class [1, 11]: -1.4; CONFIRMATORY SCREEN Efficacy (%) ([1]; confirmatory screen, negative = inhibition): -28%; IC50 ([1]; confirmatory screen, read-out: CONFIRMATORY SCREEN IC50): 2.5 µM; Efficacy (%) ([1]; qHTS FP screen hits, Table S2, negative = inhibition): -25%; IC50 ([1]; qHTS FP screen hits, Table S2, read-out: IC50): 1.3 µM; COUNTERSCREEN Efficacy (%) [2, 12]: -28%; COUNTERSCREEN Confirm? ([2]; scrambled-peptide counterscreen, YES/NO call): YES; COUNTERSCREEN Curve Class [2, 12]: 4
CC(OC(=O)c1ccc(S(C)(=O)=O)c([N+](=O)[O-])c1)C(=O)NC1C2CC3CC(C2)CC1C3 (stereo not drawn) [NCGC00188535-01] | -32 | 4 | -30 | -1.2 | 1.8 | -20 | 4 | – | – | – | – | – | – | –
